Laboratory results: publication PMC2964311, “The Human Host Defense Peptide LL-37 Interacts with Neisseria meningitidis Capsular Polysaccharides and Inhibits Inflammatory Mediators Release” (PLoS ONE, 2010)
In brackets after ≈: the same amount, converted by molar mass. Read-outs that look alike come from different tables or passages of the source. Residues, ends and D or L forms follow the SMILES beside them. No end group written: not given here. *: point of attachment. Lauroyl = CCCCCCCCCCCC(=O)*

Assays:
THP-1 cells [1] = experiment: TNFα release from THP-1 cells induced with meningococcal CPS pre-incubated with peptide (ELISA); type: cell-based, human
Protocol: (§1) Human THP-1 (macrophage-like cells) and murine RAW 264.7 (TLR4-sufficient), 23ScCr (TLR4-deficient) and HEK-TLR2/6/CD14 stably transfected cell lines were stimulated with meningococcal CPS polymers with or without pre-incubation with LL-37 and its analogs (Table 1). CPS polymers were purified from the LPS-deficient serogroup B Neisseria meningitidis lpxA mutant as well as other meningococcal serogroups A, B, C, W135 and Y. Purified CPS samples were freshly dissolved in pyrogen-free sterile H2O at 1 mg/ml stock concentration and vortexed for 2 min. Working CPS concentrations (ranging from 100 µg/ml to 50 ng/ml) were made in duplicate wells using sterile PBS by serial fold dilutions in the 96-well tissue culture plates (Becton Dickinson, Franklin Lakes, NJ) at 50 µl final volumes. […] Freshly grown THP-1 cells and HEK-TLR2/6 transfected cells as well as murine macrophages, each adjusted to 10^6 cell/ml and 250 µl aliquots were dispensed into each well at final 250×10^3 cell density in the designated 96-well plates. The plates were incubated overnight at 37°C with 5% CO2 and humidity. Supernatants from stimulated cells were harvested and stored at −20°C until use.
(§2) The cytokines TNFα, IL-6 and CXCL10 (IP-10), released from THP-1 cells, and IL-8, released from HEK-TLR2 transfected cells stimulated with meningococcal CPS polymers, were quantified by DuoSet ELISA (R&D Systems) as previously described.

THP-1 cells [2] = experiment: IL-6 release from THP-1 cells induced with meningococcal CPS pre-incubated with peptide (ELISA); type: cell-based, human; details: THP-1 cells, CPS-lpxA 100 µg to 50 ng/ml with 10 µg/ml synthetic analogs; Figure 3B
Protocol: as §1, with “Supernatants from stimulated cells were harvested and stored at −20°C until use.” left out
as §2

[3] = tested on: N. gonorrhoeae strain FA 19; details: for MIC activity against gonococci (in words): N. gonorrhoeae FA19
Protocol: The peptides were dissolved in 0.01 % (v/v) acetic acid and stored at −20°C prior to use. Antibacterial assays were performed as described previously and used N. gonorrhoeae strain FA 19. All assays were performed in triplicate and values are reported as the minimal inhibitory concentration (MIC).

[4] = tested on: ScCr (TLR4-deficient) murine macrophages; experiment: Nitric oxide release from 23ScCr (TLR4-deficient) macrophages induced with meningococcal CPS (Griess method); type: cell-based; details: ScCr cells, 20 µg/ml CPS of serogroups A, B, C, Y, W135 pre-incubated 30 min with 4 µg/ml LL-37 analogs or 20 µg/ml ampicillin or erythromycin; overnight; Figure 6
Protocol: Human THP-1 (macrophage-like cells) and murine RAW 264.7 (TLR4-sufficient), 23ScCr (TLR4-deficient) and HEK-TLR2/6/CD14 stably transfected cell lines were stimulated with meningococcal CPS polymers with or without pre-incubation with LL-37 and its analogs (Table 1). CPS polymers were purified from the LPS-deficient serogroup B Neisseria meningitidis lpxA mutant as well as other meningococcal serogroups A, B, C, W135 and Y. Purified CPS samples were freshly dissolved in pyrogen-free sterile H2O at 1 mg/ml stock concentration and vortexed for 2 min. Working CPS concentrations (ranging from 100 µg/ml to 50 ng/ml) were made in duplicate wells using sterile PBS by serial fold dilutions in the 96-well tissue culture plates (Becton Dickinson, Franklin Lakes, NJ) at 50 µl final volumes. Cationic peptides (2, 4 or 8 µg/ml) or PBS equivalent volumes were added to designated wells and pre-incubated for 30 min at 37°C. […]
Freshly grown adherent RAW 246.7 or 23ScCr (TLR4-deficient) macrophages were harvested, washed and re-suspended in Dulbecco's complete media, counted and adjusted to 10^6 cell/ml. […] Nitric oxide release was quantified using the Greiss chemical method as previously described.

RAW 264.7 macrophages = experiment: Nitric oxide release from RAW 264.7 macrophages induced with meningococcal CPS (Griess method); type: cell-based, murine; details: RAW 264, serogroup A CPS (laboratory NMA or vaccine grade MAPS 20 µg/ml) pre-incubated with 4 µg/ml analogs; nitrite after 24 h; Figure S1A, S1B
Protocol: (§3) Human THP-1 (macrophage-like cells) and murine RAW 264.7 (TLR4-sufficient), 23ScCr (TLR4-deficient) and HEK-TLR2/6/CD14 stably transfected cell lines were stimulated with meningococcal CPS polymers with or without pre-incubation with LL-37 and its analogs (Table 1). CPS polymers were purified from the LPS-deficient serogroup B Neisseria meningitidis lpxA mutant as well as other meningococcal serogroups A, B, C, W135 and Y. Purified CPS samples were freshly dissolved in pyrogen-free sterile H2O at 1 mg/ml stock concentration and vortexed for 2 min. Working CPS concentrations (ranging from 100 µg/ml to 50 ng/ml) were made in duplicate wells using sterile PBS by serial fold dilutions in the 96-well tissue culture plates (Becton Dickinson, Franklin Lakes, NJ) at 50 µl final volumes. Cationic peptides (2, 4 or 8 µg/ml) or PBS equivalent volumes were added to designated wells and pre-incubated for 30 min at 37°C. Freshly grown THP-1 cells and HEK-TLR2/6 transfected cells as well as murine macrophages, each adjusted to 10^6 cell/ml and 250 µl aliquots were dispensed into each well at final 250×10^3 cell density in the designated 96-well plates. The plates were incubated overnight at 37°C with 5% CO2 and humidity. Supernatants from stimulated cells were harvested and stored at −20°C until use.
Freshly grown adherent RAW 246.7 or 23ScCr (TLR4-deficient) macrophages were harvested, washed and re-suspended in Dulbecco's complete media, counted and adjusted to 10^6 cell/ml. 250 µl aliquots were then dispensed into each well of a 96-well plate at final 250×10^3 cell density prior to stimulation with purified CPS polymers with or without cationic peptides. The induced RAW 264.7 or 23ScCr macrophages were incubated overnight at 37°C with 5% CO2 and supernatants were harvested and saved. Nitric oxide release was quantified using the Greiss chemical method as previously described.

purified CPS polymers = experiment: Neutralizing activity against purified CPS polymers (pro-inflammatory capacity of CPS); type: cell-based, Neisseria meningitidis; details: compared with LL-37
Protocol: as §3

NFκB = experiment: Inducible NFκB dual luciferase reporter in HEK-TLR2/6 cells stimulated with CPS-lpxA; type: cell-based, human; details: CPS-lpxA (20 µg/ml) pre-incubated with analogs (4 µg/ml) 30 min, induction 5 h, firefly normalized to Renilla, Figure 7A
Description: To determine the signaling pathways induced upon meningococcal CPS recognition, a transcription factors array (Cignal Finder™ 10-Pathway Reporter Arrays, SABiosciences, Fredrick, MD) consisting of 10 dual-luciferase reporters assays were used according to the manufacturer instructions. Each of the 10 reporter assays encodes for an inducible transcription factor responsive firefly luciferase reporter and constitutively expressing Renilla construct in 40∶1 ratio. Briefly, DNA reporter master mixes were prepared in SureFect transfection reagent (SABiosciences) diluted in Opti-MEM media without serum or antibiotics and 25 µl/well were dispensed into 96-well white tissue culture plates. For reverse transfection, freshly grown cells were counted and adjusted to 1×10^6 cells/ml in Opti-MEM without serum or antibiotics. 100 µl of cells (100×10^3 cells/well) were laid over the DNA reporters in 96-well plates and incubated overnight at 37°C with 5% CO2. Transfection media were removed and replaced with 150 µl of fresh D-MEM supplemented with 10% FBS and incubated again overnight at 37°C. Cells were then induced with meningococcal CPS polymers or LOS doses for 5 h and dual-luciferase reporter activity was determined using Dual-Luciferase reporter assay system (Promega Corporation, Madison, WI) following the manufacturer instructions. […]

With `CCCCCCCCCCCC(=O)N[C@@H](Cc1ccccc1)C(=O)N[C@@H](CCCCN)C(=O)N[C@@H](CCCNC(=N)N)C(=O)N[C@H](C(=O)N[C@H](C(=O)N[C@@H](CCC(N)=O)C(=O)N[C@@H](CCCNC(=N)N)C(=O)N[C@H](C(=O)N[C@@H](CCCCN)C(=O)N[C@@H](CC(N)=O)C(=O)N[C@@H](Cc1ccccc1)C(=O)N[C@@H](CC(C)C)C(=O)N[C@@H](CCCNC(=N)N)C(=O)N[C@@H](CC(N)=O)C(=O)N[C@@H](CC(C)C)C(=O)N[C@H](C(=O)O)C(C)C)[C@@H](C)CC)C(C)C)[C@@H](C)CC` [C12LL-17-32 D/N] (Lauroyl-FKRIVQRIKNFLRNLV-OH; C-terminus assumed) the “Inhibition of TNFα release (interaction with CPS polymers)” value (THP-1 cells [1]; THP-1 cells, CPS-lpxA 100 µg to 50 ng/ml with 10 µg/ml synthetic analogs, Figure 3A) was “enhanced interaction with meningococcal CPS polymers”, the “Inhibition of IL-6 release (interaction with CPS polymers)” value (THP-1 cells [2]) was “enhanced interaction with meningococcal CPS polymers” and the MIC ([3]; strain FA 19) was 3.9 µg/mL (≈ 1.75 µM).

With `CC1(C)S[C@@H]2[C@H](NC(=O)[C@H](N)c3ccccc3)C(=O)N2[C@H]1C(=O)O` [ampicillin] the “Nitric oxide release induced by various meningococcal CPS” value [4] was “this inhibition was not observed” and the “Inhibition of CPS polymers (nitric oxide release)” value (RAW 264.7 macrophages) was “this was not seen”.

In the case of `CC[C@H]1OC(=O)[C@H](C)[C@@H](O[C@H]2C[C@@](C)(OC)[C@@H](O)[C@H](C)O2)[C@H](C)[C@@H](O[C@@H]2O[C@H](C)C[C@H](N(C)C)[C@H]2O)[C@](C)(O)C[C@@H](C)C(=O)[C@H](C)[C@@H](O)[C@]1(C)O` [erythromycin], the “Nitric oxide release induced by various meningococcal CPS” value [4] is reported as “this inhibition was not observed”.

For EKIGKEFKRIVQRIKDFLRNLVPRTES [LL-11-37], the MIC ([3]; strain FA 19) was 7.8 µg/mL.

Work on FKRIVQRIKDFLRNLV [LL-17-32] yielded an MIC ([3]; strain FA 19) of 3.9 µg/mL.

In the case of FKRIVQRIKNFLRNLV [LL-17-32 D/N], the MIC ([3]; strain FA 19) is reported as 3.9 µg/mL.

“LLGDFFDESEEEIGEEFEDIVQDIEDFLDNLVPDTES [LL-37 R/D-K/E]” showed an MIC ([3]; strain FA 19) greater than 1000 µg/mL.

For “LLGDFFDKSKEKIGKEFKDIVQDIKDFLDNLVPDTES [LL-37 R/D]”, the MIC ([3]; strain FA 19) was 125 µg/mL.

Molecule “LLGDFFRASAEAIGAEFARIVQRIADFLRNLVPRTES [LL-37 K/A]” has an MIC ([3]; strain FA 19) greater than 1000 µg/mL.

With “LLGDFFRESEEEIGEEFERIVQRIEDFLRNLVPRTES [LL-37 K/E]” the “Neutralizing activity against purified CPS polymers” value (from here on “Neutralizing activity”) (purified CPS polymers) was “reduced neutralizing activity” and the MIC ([3]; N. gonorrhoeae FA19 (non-encapsulated), assays in triplicate) was greater than 1000 µg/mL.

With LLGDFFRKSKEKIGKEF [LL-1-17] the MIC ([3]; strain FA 19) was greater than 1000 µg/mL.

“LLGKFFKKSKKKIGKKFKKIVQKIKKFLKNLVPKTKS [LL-37 K]” was tested, and the “Neutralizing activity” value (purified CPS polymers) was “did not enhance the neutralizing activity”, the “MIC activity against gonococci (in words)” value [3] was “retained excellent MIC activity” and the MIC ([3]; strain FA 19) was 7.8 µg/mL.

For “LLGRFFRRSRRRIGRRFRRIVQRIRRFLRNLVPRTRS [LL-37 R]”, the “Neutralizing activity” value (purified CPS polymers) was “did not enhance the neutralizing activity”, the “MIC activity against gonococci (in words)” value [3] was “retained excellent MIC activity” and the MIC ([3]; strain FA 19) was 15.6 µg/mL.

For Polymyxin B, the “CPS induced NFκB induction (luciferase reporter)” value (NFκB) was “able to inhibit”, the TNFα release (THP-1 cells [1]; THP-1 cells induced with the CPS-lpxA-analog complexes of the NFκB experiment, Figure 7B) was “decreased TNFα release” and the “Inhibition of CPS polymers (nitric oxide release)” value (RAW 264.7 macrophages) was “inhibited CPS polymers”.
